Values quoted from earlier work, collected in patent US6660299B2, “Modified release pharmaceutical formulation comprising amoxycillin” (Beecham Pharmaceuticals Limited, priority 1999, dated 2003).

Details: in vivo

## CC1(C)S[C@@H]2[C@H](NC(=O)[C@H](N)c3ccc(O)cc3)C(=O)N2[C@H]1C(=O)O [amoxycillin]
  excretion half-life: 1.3 h
